PMC5458547, “Discovery of first-in-class reversible dual small molecule inhibitors against G9a and DNMTs in hematological malignancies” (Nature Communications, 2017)
pIC50: −log10 of the molar value. Values after ≈ are worked out from the molar mass of the structure shown.

What was measured:
[1] = molecular target: T1, Human HDAC6 (Homo sapiens, UniProt Q9UBN7); assay: HDAC6 enzyme activity assay; type: biochemical
T1 construct: purchased DiscoverX KINOMEscan (kinases); BPS Bioscience (epigenetic targets)

[2] = molecular target: T2, SET7-9 (Homo sapiens, UniProt Q8WTS6); assay: Epigenetics selectivity panel (BPS Bioscience); type: biochemical
T2 construct: purchased DiscoverX KINOMEscan (kinases); BPS Bioscience (epigenetic targets)

[3] = tested on: H23; assay: Cell proliferation assay (MTS); type: cell-based; details: Homo sapiens, NCI-H23; NSCLC
[4] = tested on: 697; assay: Cell proliferation assay (MTS); type: cell-based; details: Homo sapiens; ALL, 48 h
[5] = molecular target: T3, DNMT3A (Homo sapiens, UniProt Q9Y6K1); assay: Epigenetics selectivity panel (BPS Bioscience); type: biochemical
T3 construct: purchased BPS Bioscience (contract panel)

[6] = tested on: PC3; assay: Cell proliferation assay (MTS); type: cell-based; details: Homo sapiens, PC-3; Prostate
[7] = tested on: PEER; assay: Cell proliferation assay (MTS); type: cell-based; details: Homo sapiens; ALL, 48 h
[8] = molecular target: T4, TAF1 (Homo sapiens, UniProt P21675); assay: Epigenetics selectivity panel (BPS Bioscience); type: binding
T4 construct: purchased DiscoverX KINOMEscan (kinases); BPS Bioscience (epigenetic targets)
T4 sequence (P21675 whole entry): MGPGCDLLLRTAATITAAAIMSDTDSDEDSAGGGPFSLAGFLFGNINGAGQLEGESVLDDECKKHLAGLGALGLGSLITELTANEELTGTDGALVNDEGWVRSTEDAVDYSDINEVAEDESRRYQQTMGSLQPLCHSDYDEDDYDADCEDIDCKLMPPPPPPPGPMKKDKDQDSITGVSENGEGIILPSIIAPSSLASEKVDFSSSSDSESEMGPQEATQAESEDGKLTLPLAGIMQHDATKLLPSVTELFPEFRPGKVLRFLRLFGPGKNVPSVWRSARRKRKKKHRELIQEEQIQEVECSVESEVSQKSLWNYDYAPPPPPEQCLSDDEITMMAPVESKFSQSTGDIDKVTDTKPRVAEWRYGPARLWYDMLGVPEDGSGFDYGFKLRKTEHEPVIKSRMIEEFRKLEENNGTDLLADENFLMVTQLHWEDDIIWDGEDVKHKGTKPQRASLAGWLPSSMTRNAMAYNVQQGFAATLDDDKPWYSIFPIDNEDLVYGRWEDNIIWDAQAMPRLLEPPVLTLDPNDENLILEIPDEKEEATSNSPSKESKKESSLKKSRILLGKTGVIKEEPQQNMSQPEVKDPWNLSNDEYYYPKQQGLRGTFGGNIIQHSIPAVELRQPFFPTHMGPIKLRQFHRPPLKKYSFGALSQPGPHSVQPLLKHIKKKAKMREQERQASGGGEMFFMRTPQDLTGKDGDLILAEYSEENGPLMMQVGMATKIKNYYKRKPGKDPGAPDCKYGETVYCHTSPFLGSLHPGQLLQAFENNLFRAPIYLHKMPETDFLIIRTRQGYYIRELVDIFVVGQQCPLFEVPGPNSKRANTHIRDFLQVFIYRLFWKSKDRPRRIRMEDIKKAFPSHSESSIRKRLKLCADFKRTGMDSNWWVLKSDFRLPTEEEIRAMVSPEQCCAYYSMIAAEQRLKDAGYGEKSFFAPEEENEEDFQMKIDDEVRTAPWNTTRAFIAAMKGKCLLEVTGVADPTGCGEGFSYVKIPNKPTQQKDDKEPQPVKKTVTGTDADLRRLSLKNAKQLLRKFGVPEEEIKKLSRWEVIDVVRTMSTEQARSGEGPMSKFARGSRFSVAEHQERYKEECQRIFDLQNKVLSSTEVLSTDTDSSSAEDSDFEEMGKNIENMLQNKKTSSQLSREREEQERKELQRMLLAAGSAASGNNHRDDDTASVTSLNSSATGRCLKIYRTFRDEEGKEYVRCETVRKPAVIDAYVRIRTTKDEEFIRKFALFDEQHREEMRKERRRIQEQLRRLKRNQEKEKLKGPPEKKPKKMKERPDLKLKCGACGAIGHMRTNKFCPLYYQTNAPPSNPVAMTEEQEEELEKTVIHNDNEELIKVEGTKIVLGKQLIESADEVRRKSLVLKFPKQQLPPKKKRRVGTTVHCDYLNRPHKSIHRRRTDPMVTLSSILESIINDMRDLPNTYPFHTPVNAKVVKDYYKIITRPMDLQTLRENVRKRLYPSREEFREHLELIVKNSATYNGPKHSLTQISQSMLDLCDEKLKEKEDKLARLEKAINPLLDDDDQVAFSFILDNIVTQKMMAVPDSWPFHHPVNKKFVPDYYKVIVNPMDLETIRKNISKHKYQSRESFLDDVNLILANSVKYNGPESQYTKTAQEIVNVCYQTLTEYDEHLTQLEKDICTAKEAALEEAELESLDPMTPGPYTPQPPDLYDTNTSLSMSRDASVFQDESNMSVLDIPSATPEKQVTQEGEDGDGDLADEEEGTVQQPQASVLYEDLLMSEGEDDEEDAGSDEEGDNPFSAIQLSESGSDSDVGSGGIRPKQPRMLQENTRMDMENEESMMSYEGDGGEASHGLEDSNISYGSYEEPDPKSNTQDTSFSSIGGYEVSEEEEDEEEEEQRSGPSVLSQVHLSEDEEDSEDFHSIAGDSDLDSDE

[9] = tested on: DU145; assay: Cell proliferation assay (MTS); type: cell-based; details: Homo sapiens, DU-145; Prostate
[10] = molecular target: T5, JMJD2B (Homo sapiens, UniProt O94953); assay: Epigenetics selectivity panel (BPS Bioscience); type: biochemical
T5 construct: purchased DiscoverX KINOMEscan (kinases); BPS Bioscience (epigenetic targets)
T5 sequence (O94953 whole entry): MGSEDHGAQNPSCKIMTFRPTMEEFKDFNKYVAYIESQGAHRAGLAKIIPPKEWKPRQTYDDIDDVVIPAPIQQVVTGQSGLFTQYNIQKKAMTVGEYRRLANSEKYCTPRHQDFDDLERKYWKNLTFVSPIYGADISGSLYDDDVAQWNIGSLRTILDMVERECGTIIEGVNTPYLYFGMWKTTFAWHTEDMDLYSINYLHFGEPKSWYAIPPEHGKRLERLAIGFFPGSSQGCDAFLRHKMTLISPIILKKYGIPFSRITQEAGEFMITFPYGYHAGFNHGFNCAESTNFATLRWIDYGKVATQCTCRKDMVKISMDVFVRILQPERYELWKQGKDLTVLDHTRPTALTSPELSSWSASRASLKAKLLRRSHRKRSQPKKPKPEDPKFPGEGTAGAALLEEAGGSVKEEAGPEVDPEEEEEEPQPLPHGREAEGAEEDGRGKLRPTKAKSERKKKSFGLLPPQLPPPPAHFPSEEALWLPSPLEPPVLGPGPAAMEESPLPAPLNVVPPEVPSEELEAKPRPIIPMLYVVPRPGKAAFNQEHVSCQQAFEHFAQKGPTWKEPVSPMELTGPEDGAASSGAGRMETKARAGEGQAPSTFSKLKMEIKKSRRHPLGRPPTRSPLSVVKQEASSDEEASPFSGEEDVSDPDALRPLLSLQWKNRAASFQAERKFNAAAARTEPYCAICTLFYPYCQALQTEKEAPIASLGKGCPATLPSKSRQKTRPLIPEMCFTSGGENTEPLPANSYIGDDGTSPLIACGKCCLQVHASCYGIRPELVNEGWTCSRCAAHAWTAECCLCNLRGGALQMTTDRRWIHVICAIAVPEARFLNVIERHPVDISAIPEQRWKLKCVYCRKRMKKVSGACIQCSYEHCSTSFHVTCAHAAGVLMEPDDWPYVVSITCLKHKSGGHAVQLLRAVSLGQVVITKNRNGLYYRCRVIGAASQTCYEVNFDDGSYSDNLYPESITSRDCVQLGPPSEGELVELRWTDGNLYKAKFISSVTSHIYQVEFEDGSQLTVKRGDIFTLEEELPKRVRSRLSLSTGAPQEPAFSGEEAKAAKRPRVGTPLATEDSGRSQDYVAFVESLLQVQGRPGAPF

[11] = tested on: MGH-U3; assay: Cell proliferation assay (MTS); type: cell-based; details: Homo sapiens; Bladder
[12] = tested on: CAKI-2; assay: Cell proliferation assay (MTS); type: cell-based; details: Homo sapiens, Renal
[13] = tested on: COLO-205; assay: Cell proliferation assay (MTS); type: cell-based; details: Homo sapiens, Colorectal
[14] = molecular target: T6, EZH2 (Homo sapiens, UniProt Q15910); assay: Epigenetics selectivity panel (BPS Bioscience); type: biochemical
T6 construct: purchased DiscoverX KINOMEscan (kinases); BPS Bioscience (epigenetic targets)

[15] = molecular target: T7, BRD2(BD1+BD2) (Homo sapiens, UniProt P25440); assay: Epigenetics selectivity panel (BPS Bioscience); type: binding
T7 construct: purchased DiscoverX KINOMEscan (kinases); BPS Bioscience (epigenetic targets)

[16] = tested on: MM1.R; assay: Cell proliferation assay (MTS); type: cell-based; details: Homo sapiens, MM.1R
[17] = molecular target: T8, PRMT5 (Homo sapiens, UniProt O14744); assay: Epigenetics selectivity panel (BPS Bioscience); type: biochemical
T8 construct: purchased DiscoverX KINOMEscan (kinases); BPS Bioscience (epigenetic targets)

[18] = tested on: H187; assay: Cell proliferation assay (MTS); type: cell-based; details: Homo sapiens, NCI-H187; SCLC
[19] = tested on: KMS28BM; assay: Cell proliferation assay (MTS); type: cell-based; details: Homo sapiens, KMS-28BM; MM
[20] = molecular target: T9, Jarid1C (Homo sapiens, UniProt P41229); assay: Epigenetics selectivity panel (BPS Bioscience); type: biochemical
T9 construct: purchased DiscoverX KINOMEscan (kinases); BPS Bioscience (epigenetic targets)

[21] = tested on: U87-MG; assay: Cell proliferation assay (MTS); type: cell-based; details: Homo sapiens, U-87 MG; Glioblastoma
[22] = Kinetic solubility; type: physicochemical; details: aqueous buffer, kinetic from dmso stock, pH 7.4, 50 mM phosphate buffer
Method: This study was conducted at Wuxi (http://www.wuxi.com/) at pH 7.4 (50 mM phosphate buffer). […]
The pH was adjusted to 7.40±0.05 using either 1 M sodium hydroxide or 1 M hydrochloric acid. Test compounds were diluted to 0.2 mM in DMSO and further diluted prior to testing to 10 µM in PBS, pH 7.4 (final 5% DMSO). The assay was performed using a 96-well multiscreen-IP PAMPA plate (Millipore, Cat. # MAIPN4510), whose PVDF membrane was pre-coated with 5 µL of 1% lecithin/dodecane mixture. 150 µL of PBS solution containing the test compounds were added to the donor chamber. Blank PBS (300 µL) was also added to the PTFE acceptor plate, and the donor and acceptor plates were assembled and incubated for 4 h at room temperature with shaking at 150 rpm. […]

[23] = molecular target: T10, ATAD2A (Homo sapiens, UniProt Q6PL18); assay: Epigenetics selectivity panel (BPS Bioscience); type: binding
T10 construct: purchased DiscoverX KINOMEscan (kinases); BPS Bioscience (epigenetic targets)

[24] = tested on: UACC-62; assay: Cell proliferation assay (MTS); type: cell-based; details: Homo sapiens, Melanoma
[25] = molecular target: T11, PRMT6 (Homo sapiens, UniProt Q96LA8); assay: Epigenetics selectivity panel (BPS Bioscience); type: biochemical
T11 construct: purchased BPS Bioscience (contract panel)
T11 sequence (Q96LA8 whole entry): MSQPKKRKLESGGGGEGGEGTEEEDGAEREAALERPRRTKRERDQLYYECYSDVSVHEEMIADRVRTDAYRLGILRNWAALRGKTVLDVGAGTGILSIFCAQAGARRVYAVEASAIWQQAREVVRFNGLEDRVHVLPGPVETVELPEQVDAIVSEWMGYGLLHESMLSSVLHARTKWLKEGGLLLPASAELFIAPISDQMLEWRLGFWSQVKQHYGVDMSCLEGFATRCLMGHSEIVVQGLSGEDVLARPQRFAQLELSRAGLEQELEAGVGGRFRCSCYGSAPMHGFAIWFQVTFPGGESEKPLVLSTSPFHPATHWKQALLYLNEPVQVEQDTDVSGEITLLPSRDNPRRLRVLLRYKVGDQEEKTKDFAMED

[26] = tested on: H460; assay: Cell proliferation assay (MTS); type: cell-based; details: Homo sapiens, NCI-H460; NSCLC
[27] = tested on: HCC95; assay: Cell proliferation assay (MTS); type: cell-based; details: Homo sapiens, SCLC
[28] = Liver microsomal stability; type: in vitro ADME; details: human, human liver microsomes; read-out: Liver Microsomal Stability. Estimation T1/2
[29] = tested on: HL-60; assay: Cell proliferation assay (MTS); type: cell-based; details: Homo sapiens, AML, 48 h
[30] = molecular target: T12, JMJD3 (Homo sapiens, UniProt O15054); assay: Epigenetics selectivity panel (BPS Bioscience); type: biochemical
T12 construct: purchased DiscoverX KINOMEscan (kinases); BPS Bioscience (epigenetic targets)
T12 sequence (O15054 whole entry): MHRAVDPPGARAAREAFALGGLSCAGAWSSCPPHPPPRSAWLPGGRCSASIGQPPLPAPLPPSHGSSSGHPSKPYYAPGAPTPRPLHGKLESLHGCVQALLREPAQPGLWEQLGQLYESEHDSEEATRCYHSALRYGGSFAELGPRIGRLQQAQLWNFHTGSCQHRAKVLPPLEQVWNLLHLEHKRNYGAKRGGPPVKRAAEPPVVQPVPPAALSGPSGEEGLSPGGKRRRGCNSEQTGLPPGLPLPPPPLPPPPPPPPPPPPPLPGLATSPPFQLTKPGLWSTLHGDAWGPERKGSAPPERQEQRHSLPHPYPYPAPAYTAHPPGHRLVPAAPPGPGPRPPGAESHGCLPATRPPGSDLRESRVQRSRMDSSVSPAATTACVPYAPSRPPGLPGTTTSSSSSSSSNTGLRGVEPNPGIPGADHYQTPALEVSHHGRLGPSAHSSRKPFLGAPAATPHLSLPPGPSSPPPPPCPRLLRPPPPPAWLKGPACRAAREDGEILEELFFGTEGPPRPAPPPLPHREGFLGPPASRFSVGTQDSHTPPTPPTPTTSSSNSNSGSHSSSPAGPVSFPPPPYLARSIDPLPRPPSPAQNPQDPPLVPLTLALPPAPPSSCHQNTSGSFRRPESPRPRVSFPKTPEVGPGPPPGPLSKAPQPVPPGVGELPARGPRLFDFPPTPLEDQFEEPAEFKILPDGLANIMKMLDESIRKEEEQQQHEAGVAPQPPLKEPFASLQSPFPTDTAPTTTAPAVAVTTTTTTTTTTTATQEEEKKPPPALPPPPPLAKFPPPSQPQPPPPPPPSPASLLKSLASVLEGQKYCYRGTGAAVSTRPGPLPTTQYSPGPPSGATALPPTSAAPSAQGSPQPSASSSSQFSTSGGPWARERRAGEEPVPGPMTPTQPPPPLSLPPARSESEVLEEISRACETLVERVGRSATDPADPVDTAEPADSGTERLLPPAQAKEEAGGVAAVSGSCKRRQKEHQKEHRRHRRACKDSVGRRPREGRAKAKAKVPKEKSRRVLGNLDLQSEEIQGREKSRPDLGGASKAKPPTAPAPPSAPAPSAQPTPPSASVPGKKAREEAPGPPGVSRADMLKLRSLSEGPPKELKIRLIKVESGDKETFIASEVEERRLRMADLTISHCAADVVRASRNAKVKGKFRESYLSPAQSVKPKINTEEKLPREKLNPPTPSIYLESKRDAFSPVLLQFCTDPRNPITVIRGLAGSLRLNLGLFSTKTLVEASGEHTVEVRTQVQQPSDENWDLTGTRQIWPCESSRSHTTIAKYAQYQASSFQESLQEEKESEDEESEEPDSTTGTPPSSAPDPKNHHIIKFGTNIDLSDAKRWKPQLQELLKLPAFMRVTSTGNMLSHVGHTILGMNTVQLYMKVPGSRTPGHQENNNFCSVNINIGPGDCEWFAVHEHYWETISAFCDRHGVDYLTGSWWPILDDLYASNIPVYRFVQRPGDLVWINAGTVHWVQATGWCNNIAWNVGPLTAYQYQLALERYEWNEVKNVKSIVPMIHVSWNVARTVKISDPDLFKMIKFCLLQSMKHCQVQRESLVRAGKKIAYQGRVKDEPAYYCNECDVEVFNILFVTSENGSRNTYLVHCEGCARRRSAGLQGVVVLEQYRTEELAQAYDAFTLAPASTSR

[31] = molecular target: T13, JMJD2C (Homo sapiens, UniProt Q9H3R0); assay: Epigenetics selectivity panel (BPS Bioscience); type: biochemical
T13 construct: purchased DiscoverX KINOMEscan (kinases); BPS Bioscience (epigenetic targets)

[32] = tested on: HCT-116; assay: Cell proliferation assay (MTS); type: cell-based; details: Homo sapiens, Colorectal
[33] = tested on: LOVO; assay: Cell proliferation assay (MTS); type: cell-based; details: Homo sapiens, Colorectal
[34] = molecular target: T14, Human HDAC1 (Homo sapiens, UniProt Q13547); assay: HDAC1 enzyme activity assay; type: biochemical
T14 construct: purchased DiscoverX KINOMEscan (kinases); BPS Bioscience (epigenetic targets)

[35] = tested on: MM1.S; assay: Cell proliferation assay (MTS); type: cell-based; details: Homo sapiens
[36] = tested on: 1205-LU; assay: Cell proliferation assay (MTS); type: cell-based; details: Homo sapiens, Melanoma
[37] = tested on: 451-LU; assay: Cell proliferation assay (MTS); type: cell-based; details: Homo sapiens, Melanoma
[38] = tested on: RPMI 8226; assay: Cell proliferation assay (MTS); type: cell-based; details: Homo sapiens, MM
[39] = tested on: A498; assay: Cell proliferation assay (MTS); type: cell-based; details: Homo sapiens, Renal
[40] = tested on: SK-MEL-103; assay: Cell proliferation assay (MTS); type: cell-based; details: Homo sapiens, Melanoma
[41] = tested on: OCI-AML-2; assay: Cell proliferation assay (MTS); type: cell-based, human; details: Homo sapiens, OCI-AML2; AML, 48 h; read-out: GI50

Work on `COc1cc2c(NC3CCN(C)CC3)cc(-c3ccc(C)o3)nc2cc1OCCCN1CCCC1` [CM-272, 6-methoxy-2-(5-methyl-2-furyl)-N-(1-methyl-4-piperidyl)-7-(3-pyrrolidin-1-ylpropoxy)quinolin-4-amine] yielded an inhibition at 10 µM [1] of 0%, an inhibition at 10 µM [2] of 3% and a GI50 [3] of 2490 nM. The GI50 [4] was 913 nM, the pIC50 [5] was 7.07 and the GI50 [6] was 590 nM. For the same compound, the GI50 [7] was 930 nM, the inhibition at 10 µM [8] was 0% and the GI50 [9] was 762 nM. For the same compound, the inhibition at 10 µM [10] was 2%, the GI50 [11] was 456 nM and the GI50 [12] was 2920 nM. For the same compound, the GI50 [13] was 679 nM, the inhibition at 10 µM [14] was 1% and the inhibition at 10 µM [15] was 0%. The GI50 [16] was 980 nM, the inhibition at 10 µM [17] was 6% and the GI50 [18] was 1640 nM. It also gave a GI50 [19] of 1630 nM, an inhibition at 10 µM [20] of 1% and a GI50 [21] of 294 nM. The solubility [22] was 118 µg/mL (≈ 246 µM), the inhibition at 10 µM [23] was 0% and the GI50 [24] was 780 nM. The inhibition at 10 µM ([25]; 10 µM) was 82%, the pIC50 ([25]; BPS) was 5.52 and the GI50 [26] was 1480 nM. It also gave a GI50 [27] of 751 nM, a half-life at 1 µM [28] greater than 2.42 h and a GI50 [29] of 2900 nM. The inhibition at 10 µM [30] was 9%, the inhibition at 10 µM [31] was 12% and the GI50 [32] was 602 nM. The GI50 [33] was 1220 nM, the inhibition at 10 µM [34] was 0% and the GI50 [35] was 1080 nM. It also gave a GI50 [36] of 121 nM, a GI50 [37] of 378 nM and a GI50 [38] of 2000 nM. For the same compound, the GI50 [39] was 4760 nM, the GI50 [40] was 281 nM and the GI50 [41] was 256 nM.
